In patent US12043599B2, “Herbicidal compounds” (SYNGENTA PARTICIPATIONS AG, priority 2018, dated 2024):

How the values were obtained:
Type in all cases: in vivo
Conditions in all cases: 250 g/h, evaluated after 13 days
Avena fatua (AVEFA) [1] = test: Pre-emergence herbicidal glasshouse test, percentage damage
Protocol: (§1) Seeds of a variety of test species are sown in standard soil in pots (Lolium perenne (LOLPE), Setaria faberi (SETFA), Alopecurus myosuroides (ALOMY), Echinochloa crus-galli (ECHCG), Avena fatua (AVEFA)). After cultivation for one day (pre-emergence) or after 8 days cultivation (post-emergence) under controlled conditions in a glasshouse (at 24/16° C., day/night; 14 hours light; 65% humidity), the plants are sprayed with an aqueous spray solution derived from the formulation of the technical active ingredient in acetone/water (50:50) solution containing 0.5% Tween 20 (polyoxyethelyene sorbitan monolaurate, CAS RN 9005-64-5). Compounds are applied at […]. The test plants are then grown in a glasshouse under controlled conditions in a glasshouse (at 24/16° C., day/night; 14 hours light; 65% humidity) and watered twice daily. After 13 days for pre and post-emergence, the test is evaluated for the percentage damage caused to the plant. The biological activities are shown in the following table on a five point scale (5=80-100%; 4=60-79%; 3=40-59%; 2=20-39%; 1=0-19%).

[2] = test system: Echinochloa crus-galli (ECHCG); test: as above
Protocol: as §1

Lolium perenne (LOLPE) [3] = test: as above
Protocol: as §1

Setaria faberi (SETFA) [4] = test: as above
Protocol: as §1

Setaria faberi (SETFA) [5] = test: Post-emergence herbicidal glasshouse test, percentage damage
Protocol: as §1
Using procedures outlines above, wheat and barley crop plants and a weed species (SETFA) are treated post-emergence with compound A11 of the present invention or comparator compound C1 (Compound A-38 from WO2014/096289) at the application rates indicated. The compounds were also applied to wheat in conjunction with the safener compound cloquintocet-mexyl (CQC) at 50 g/ha.

Avena fatua (AVEFA) [6] = test: as above
Protocol: as §1

[7] = test system: Echinochloa crus-galli (ECHCG); test: as above
Protocol: as §1

Lolium perenne (LOLPE) [8] = test: as above
Protocol: as §1

| SMILES | AVEFA PRE percentage damage (five point scale) (Avena fatua (AVEFA) [1]) | ECHCG PRE percentage damage (five point scale) [2] | LOLPE PRE percentage damage (five point scale) (Lolium perenne (LOLPE) [3]) | SETFA PRE percentage damage (five point scale) (Setaria faberi (SETFA) [4]) | SETFA POST percentage damage (five point scale) (Setaria faberi (SETFA) [5]) | AVEFA POST percentage damage (five point scale) (Avena fatua (AVEFA) [6]) | ECHCG POST percentage damage (five point scale) [7] | LOLPE POST percentage damage (five point scale) (Lolium perenne (LOLPE) [8]) |
| --- | --- | --- | --- | --- | --- | --- | --- | --- |
| CC#Cc1cc(C)c(C2C(=O)CC3(CCN(C(=O)NC(=O)C4CC4)CC3)CC2=O)c(C)c1 [Compound A141] | 4 (4=60-79%) | 5 (5=80-100%) | 5 (5=80-100%) | 5 (5=80-100%) | 5 (5=80-100%) | 5 (5=80-100%) | 5 (5=80-100%) | 5 (5=80-100%) |
| CC#Cc1cc(C)c(C2C(=O)CC3(CCN(C(=O)c4cnc(C)cn4)CC3)CC2=O)c(C)c1 [Compound A127] | 5 (5=80-100%) | 5 (5=80-100%) | 5 (5=80-100%) | 5 (5=80-100%) | 5 (5=80-100%) | 5 (5=80-100%) | 5 (5=80-100%) | 5 (5=80-100%) |
| CC#Cc1cc(C)c(C2C(=O)CC3(CCN(C(=O)c4cncs4)CC3)CC2=O)c(C)c1 [Compound A118] | 5 (5=80-100%) | 5 (5=80-100%) | 5 (5=80-100%) | 5 (5=80-100%) | 5 (5=80-100%) | 5 (5=80-100%) | 5 (5=80-100%) | 5 (5=80-100%) |
| CC#Cc1cc(C)c(C2C(=O)CC3(CCN(C(=O)c4nccnc4C)CC3)CC2=O)c(C)c1 [Compound A138] | 5 (5=80-100%) | 5 (5=80-100%) | 5 (5=80-100%) | 5 (5=80-100%) | 5 (5=80-100%) | 5 (5=80-100%) | 5 (5=80-100%) | 5 (5=80-100%) |
| CC#Cc1cc(C)c(C2=C(OC(=O)OC)CC3(CCN(C(=O)c4ccncc4)CC3)CC2=O)c(C)c1 [Compound P45] | 5 (5=80-100%) | 5 (5=80-100%) | 5 (5=80-100%) | 5 (5=80-100%) | 5 (5=80-100%) | 5 (5=80-100%) | 5 (5=80-100%) | 5 (5=80-100%) |
| CC#Cc1cc(C)c(C2C(=O)CC3(CCN(C(=O)c4ccnn4C)CC3)CC2=O)c(C)c1 [Compound A136] | 5 (5=80-100%) | 5 (5=80-100%) | 5 (5=80-100%) | 5 (5=80-100%) | 5 (5=80-100%) | 5 (5=80-100%) | 5 (5=80-100%) | 5 (5=80-100%) |
| CC#Cc1cc(C)c(C2C(=O)CC3(CCN(C4=NOC(C)(C)C4)CC3)CC2=O)c(C)c1 [Compound A143] | 4 (4=60-79%) | 5 (5=80-100%) | 5 (5=80-100%) | 5 (5=80-100%) | 5 (5=80-100%) | 5 (5=80-100%) | 5 (5=80-100%) | 5 (5=80-100%) |
| CC#Cc1cc(C)c(C2C(=O)CC3(CCN(C(=O)C4CCCOC4)CC3)CC2=O)c(C)c1 (stereo not shown) [Compound A128] | 3 (3=40-59%) | 5 (5=80-100%) | 5 (5=80-100%) | 5 (5=80-100%) | 4 (4=60-79%) | 5 (5=80-100%) | 5 (5=80-100%) | 5 (5=80-100%) |
